Assay results from patent US20020111274A1, “1-alkyl-3-[1-(substituted phenyl) benzotriazol-6-yl] uracils” (BASF Aktiengesellschaft, priority 2000, published 2002).

Experiments:
Set-up in all cases: scale not given here
ABUTH Velvetleaf [1] = test: Postemergence herbicidal evaluation, ABUTH; format: in vivo, Abutilon theophrasti, Medic.; details: postemergence spray, rated about two-three weeks after treatment
How it was run: (§1)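 For this test, compound in an 80/20 acetone/water vehicle with 1.0% seed oil was sprayed over two-week-old seedlings at about 0.006 to 0.400 kg per hectare. Injury was assessed visually two to three weeks on.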

AMBEL Ragweed, Common [2] = test: Postemergence herbicidal evaluation, AMBEL; format: in vivo, Ambrosia artemisifolia, L.; details: postemergence spray, rated about two-three weeks after treatment
How it was run: as §1

CASOB Sicklepod [3] = test: Postemergence herbicidal evaluation, CASOB; format: in vivo, Cassia obtusifolia, L.; details: postemergence spray, rated about two-three weeks after treatment
How it was run: as §1

[4] = system: CHEAL Lambsquarters, Common; test: Postemergence herbicidal evaluation, CHEAL; format: in vivo, Chenopodium album, L.; details: postemergence spray, rated about two-three weeks after treatment
How it was run: as §1

ECHOG Barnyardgrass [5] = test: Postemergence herbicidal evaluation, ECHOG; format: in vivo, Echinochloa crus-galli, (L.) Beau; details: postemergence spray, rated about two-three weeks after treatment
How it was run: as §1

GALAP Galium [6] = test: Postemergence herbicidal evaluation, GALAP; format: in vivo, Galium aparine; details: postemergence spray, rated about two-three weeks after treatment
How it was run: as §1

[7] = system: IPOHE Morningglory, Ivyleaf; test: Postemergence herbicidal evaluation, IPOHE; format: in vivo, Ipomoea hederacea, (L.) Jacq.; details: postemergence spray, rated about two-three weeks after treatment
How it was run: as §1

SETVI Foxtail, Green [8] = test: Postemergence herbicidal evaluation, SETVI; format: in vivo, Setaria viridis, (L.) Beau; details: postemergence spray, rated about two-three weeks after treatment
How it was run: as §1

GLXMAW Soybean, Williams [9] = test: Postemergence herbicidal evaluation, GLXMAW; format: in vivo, Glycine max, (L.) Merr. cv Williams; details: postemergence spray, rated about two-three weeks after treatment
How it was run: as §1

[10] = system: TRZAWR Wheat, Winter, cv Riband; test: Postemergence herbicidal evaluation, TRZAWR; format: in vivo, Triticum aestivum; details: postemergence spray, rated about two-three weeks after treatment
How it was run: as §1

ORYSAT Rice, Tebonnet [11] = test: Postemergence herbicidal evaluation, ORYSAT; format: in vivo, Oryza sativa, (L.); details: postemergence spray, rated about two-three weeks after treatment
How it was run: as §1

ZEAMX Corn, Field [12] = test: Postemergence herbicidal evaluation, ZEAMX; format: in vivo, Zea mays, L. (Sammel-Bezeichnung); details: postemergence spray, rated about two-three weeks after treatment
How it was run: as §1

ABUTH Velvetleaf [13] = test: Preemergence herbicidal evaluation, ABUTH; format: in vivo, Abutilon theophrasti, Medic.; details: preemergence
How it was run: (§2)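 Seeds mixed with potting soil were planted on about one inch of soil in cups, then sprayed with the test compound in aqueous acetone at roughly 0.013 to 0.800 kg per hectare. Plants were kept under standard greenhouse care and injury was rated four to five weeks after treatment.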

AMBEL Ragweed, Common [14] = test: Preemergence herbicidal evaluation, AMBEL; format: in vivo, Ambrosia artemisifolia, L.; details: preemergence
How it was run: as §2

CASOB Sicklepod [15] = test: Preemergence herbicidal evaluation, CASOB; format: in vivo, Cassia obtusifolia, L.; details: preemergence
How it was run: as §2

[16] = system: CHEAL Lambsquarters, Common; test: Preemergence herbicidal evaluation, CHEAL; format: in vivo, Chenopodium album, L.; details: preemergence
How it was run: as §2

ECHOG Barnyardgrass [17] = test: Preemergence herbicidal evaluation, ECHOG; format: in vivo, Echinochloa crus-galli, (L.) Beau; details: preemergence
How it was run: as §2

GALAP Galium [18] = test: Preemergence herbicidal evaluation, GALAP; format: in vivo, Galium aparine; details: preemergence
How it was run: as §2

[19] = system: IPOHE Morningglory, Ivyleaf; test: Preemergence herbicidal evaluation, IPOHE; format: in vivo, Ipomoea hederacea, (L.) Jacq.; details: preemergence
How it was run: as §2

SETVI Foxtail, Green [20] = test: Preemergence herbicidal evaluation, SETVI; format: in vivo, Setaria viridis, (L.) Beau; details: preemergence
How it was run: as §2

GLXMAW Soybean, Williams [21] = test: Preemergence herbicidal evaluation, GLXMAW; format: in vivo, Glycine max, (L.) Merr. cv Williams; details: preemergence
How it was run: as §2

[22] = system: TRZAWR Wheat, Winter, cv Riband; test: Preemergence herbicidal evaluation, TRZAWR; format: in vivo, Triticum aestivum; details: preemergence
How it was run: as §2

ORYSAT Rice, Tebonnet [23] = test: Preemergence herbicidal evaluation, ORYSAT; format: in vivo, Oryza sativa, (L.); details: preemergence
How it was run: as §2

ZEAMX Corn, Field [24] = test: Preemergence herbicidal evaluation, ZEAMX; format: in vivo, Zea mays, L. (Sammel-Bezeichnung); details: preemergence
How it was run: as §2

COc1ccc(-n2nnc3cc(F)c(-n4c(=O)cc(C(F)(F)F)n(C)c4=O)cc32)c(C)c1 [Example 24]
2.5: Postemergence herbicidal rating TRZAWR ([10]; 0.008 kg/ha) | Postemergence herbicidal rating TRZAWR ([10]; 0.016 kg/ha) | Postemergence herbicidal rating TRZAWR ([10]; 0.032 kg/ha) | Postemergence herbicidal rating ORYSAT (ORYSAT Rice, Tebonnet [11]; 0.062 kg/ha)
5.0: GLXMAW herbicidal rating (GLXMAW Soybean, Williams [21]; rate 0.125 kg/ha)
1.0: Postemergence herbicidal rating GALAP (GALAP Galium [6]; 0.016 kg/ha) | GLXMAW herbicidal rating (GLXMAW Soybean, Williams [21]; rate 0.032 kg/ha) | TRZAWR herbicidal rating ([22]; rate 0.062 kg/ha) | TRZAWR herbicidal rating ([22]; rate 0.125 kg/ha) | ORYSAT herbicidal rating (ORYSAT Rice, Tebonnet [23]; rate 0.062 kg/ha) | ORYSAT herbicidal rating (ORYSAT Rice, Tebonnet [23]; rate 0.125 kg/ha)
6.0: ABUTH herbicidal rating (ABUTH Velvetleaf [13]; rate 0.032 kg/ha) | ZEAMX herbicidal rating (ZEAMX Corn, Field [24]; rate 0.125 kg/ha)
0.0: Postemergence herbicidal rating AMBEL (AMBEL Ragweed, Common [2]; 0.008 kg/ha) | Postemergence herbicidal rating AMBEL (AMBEL Ragweed, Common [2]; 0.016 kg/ha) | Postemergence herbicidal rating AMBEL (AMBEL Ragweed, Common [2]; 0.032 kg/ha) | Postemergence herbicidal rating CASOB (CASOB Sicklepod [3]; 0.008 kg/ha) | Postemergence herbicidal rating CASOB (CASOB Sicklepod [3]; 0.016 kg/ha) | Postemergence herbicidal rating CASOB (CASOB Sicklepod [3]; 0.032 kg/ha) | Postemergence herbicidal rating CASOB (CASOB Sicklepod [3]; 0.062 kg/ha) | Postemergence herbicidal rating ECHCG (ECHOG Barnyardgrass [5]; 0.008 kg/ha) | Postemergence herbicidal rating ECHCG (ECHOG Barnyardgrass [5]; 0.016 kg/ha) | Postemergence herbicidal rating ECHCG (ECHOG Barnyardgrass [5]; 0.032 kg/ha) | Postemergence herbicidal rating ECHCG (ECHOG Barnyardgrass [5]; 0.062 kg/ha) | Postemergence herbicidal rating GALAP (GALAP Galium [6]; 0.008 kg/ha) | Postemergence herbicidal rating IPOHE ([7]; 0.008 kg/ha) | Postemergence herbicidal rating SETVI (SETVI Foxtail, Green [8]; 0.008 kg/ha) | Postemergence herbicidal rating SETVI (SETVI Foxtail, Green [8]; 0.016 kg/ha) | Postemergence herbicidal rating SETVI (SETVI Foxtail, Green [8]; 0.032 kg/ha) | Postemergence herbicidal rating SETVI (SETVI Foxtail, Green [8]; 0.062 kg/ha) | ABUTH herbicidal rating (ABUTH Velvetleaf [13]; rate 0.016 kg/ha) | AMBEL herbicidal rating (AMBEL Ragweed, Common [14]; rate 0.016 kg/ha) | AMBEL herbicidal rating (AMBEL Ragweed, Common [14]; rate 0.032 kg/ha) | AMBEL herbicidal rating (AMBEL Ragweed, Common [14]; rate 0.062 kg/ha) | AMBEL herbicidal rating (AMBEL Ragweed, Common [14]; rate 0.125 kg/ha) | CASOB herbicidal rating (CASOB Sicklepod [15]; rate 0.016 kg/ha) | CASOB herbicidal rating (CASOB Sicklepod [15]; rate 0.032 kg/ha) | CASOB herbicidal rating (CASOB Sicklepod [15]; rate 0.062 kg/ha) | CASOB herbicidal rating (CASOB Sicklepod [15]; rate 0.125 kg/ha) | CHEAL herbicidal rating ([16]; rate 0.016 kg/ha) | CHEAL herbicidal rating ([16]; rate 0.032 kg/ha) | ECHCG herbicidal rating (ECHOG Barnyardgrass [17]; rate 0.016 kg/ha) | ECHCG herbicidal rating (ECHOG Barnyardgrass [17]; rate 0.032 kg/ha) | GALAP herbicidal rating (GALAP Galium [18]; rate 0.016 kg/ha) | GALAP herbicidal rating (GALAP Galium [18]; rate 0.032 kg/ha) | GALAP herbicidal rating (GALAP Galium [18]; rate 0.062 kg/ha) | IPOHE herbicidal rating ([19]; rate 0.016 kg/ha) | IPOHE herbicidal rating ([19]; rate 0.032 kg/ha) | IPOHE herbicidal rating ([19]; rate 0.062 kg/ha) | IPOHE herbicidal rating ([19]; rate 0.125 kg/ha) | SETVI herbicidal rating (SETVI Foxtail, Green [20]; rate 0.016 kg/ha) | SETVI herbicidal rating (SETVI Foxtail, Green [20]; rate 0.032 kg/ha) | GLXMAW herbicidal rating (GLXMAW Soybean, Williams [21]; rate 0.016 kg/ha) | TRZAWR herbicidal rating ([22]; rate 0.016 kg/ha) | TRZAWR herbicidal rating ([22]; rate 0.032 kg/ha) | ORYSAT herbicidal rating (ORYSAT Rice, Tebonnet [23]; rate 0.016 kg/ha) | ORYSAT herbicidal rating (ORYSAT Rice, Tebonnet [23]; rate 0.032 kg/ha) | ZEAMX herbicidal rating (ZEAMX Corn, Field [24]; rate 0.016 kg/ha) | ZEAMX herbicidal rating (ZEAMX Corn, Field [24]; rate 0.032 kg/ha)
4.0: Postemergence herbicidal rating CHEAL ([4]; 0.062 kg/ha) | Postemergence herbicidal rating IPOHE ([7]; 0.032 kg/ha) | Postemergence herbicidal rating IPOHE ([7]; 0.062 kg/ha) | Postemergence herbicidal rating GLXMAW (GLXMAW Soybean, Williams [9]; 0.032 kg/ha) | Postemergence herbicidal rating GLXMAW (GLXMAW Soybean, Williams [9]; 0.062 kg/ha) | ZEAMX herbicidal rating (ZEAMX Corn, Field [24]; rate 0.062 kg/ha)
3.0: Postemergence herbicidal rating ABUTH (ABUTH Velvetleaf [1]; 0.008 kg/ha) | Postemergence herbicidal rating CHEAL ([4]; 0.008 kg/ha) | Postemergence herbicidal rating CHEAL ([4]; 0.016 kg/ha) | Postemergence herbicidal rating CHEAL ([4]; 0.032 kg/ha) | Postemergence herbicidal rating GALAP (GALAP Galium [6]; 0.062 kg/ha) | Postemergence herbicidal rating IPOHE ([7]; 0.016 kg/ha) | Postemergence herbicidal rating GLXMAW (GLXMAW Soybean, Williams [9]; 0.008 kg/ha) | ECHCG herbicidal rating (ECHOG Barnyardgrass [17]; rate 0.062 kg/ha)
9.0: Postemergence herbicidal rating ABUTH (ABUTH Velvetleaf [1]; 0.016 kg/ha) | Postemergence herbicidal rating ABUTH (ABUTH Velvetleaf [1]; 0.032 kg/ha) | Postemergence herbicidal rating ABUTH (ABUTH Velvetleaf [1]; 0.062 kg/ha) | ABUTH herbicidal rating (ABUTH Velvetleaf [13]; rate 0.062 kg/ha) | ABUTH herbicidal rating (ABUTH Velvetleaf [13]; rate 0.125 kg/ha) | CHEAL herbicidal rating ([16]; rate 0.062 kg/ha) | CHEAL herbicidal rating ([16]; rate 0.125 kg/ha) | SETVI herbicidal rating (SETVI Foxtail, Green [20]; rate 0.062 kg/ha) | SETVI herbicidal rating (SETVI Foxtail, Green [20]; rate 0.125 kg/ha)
3.5: Postemergence herbicidal rating GLXMAW (GLXMAW Soybean, Williams [9]; 0.016 kg/ha) | Postemergence herbicidal rating TRZAWR ([10]; 0.062 kg/ha) | Postemergence herbicidal rating ZEAMX (ZEAMX Corn, Field [12]; 0.008 kg/ha) | Postemergence herbicidal rating ZEAMX (ZEAMX Corn, Field [12]; 0.016 kg/ha) | Postemergence herbicidal rating ZEAMX (ZEAMX Corn, Field [12]; 0.032 kg/ha)
2.0: Postemergence herbicidal rating AMBEL (AMBEL Ragweed, Common [2]; 0.062 kg/ha) | Postemergence herbicidal rating GALAP (GALAP Galium [6]; 0.032 kg/ha) | Postemergence herbicidal rating ORYSAT (ORYSAT Rice, Tebonnet [11]; 0.008 kg/ha) | Postemergence herbicidal rating ORYSAT (ORYSAT Rice, Tebonnet [11]; 0.016 kg/ha) | Postemergence herbicidal rating ORYSAT (ORYSAT Rice, Tebonnet [11]; 0.032 kg/ha) | GLXMAW herbicidal rating (GLXMAW Soybean, Williams [21]; rate 0.062 kg/ha)
7.0: ECHCG herbicidal rating (ECHOG Barnyardgrass [17]; rate 0.125 kg/ha)
4.5: Postemergence herbicidal rating ZEAMX (ZEAMX Corn, Field [12]; 0.062 kg/ha)
